Laboratory results as given in EP4778920A1, “INDAZOLONE COMPOUND, PREPARATION METHOD THEREFOR, PHARMACEUTICAL COMPOSITION, AND USE” (Shanghai Institute of Materia Medica, Chinese Academy of …, priority 2023, dated 2025).
pIC50: −log10 of the molar value. Read-outs that look alike come from different tables or passages of the source.

Tests used:
Format in all cases: cell-based
MV-4-11 cells = assay: MV-4-11 cell proliferation inhibition (MTS assay); conditions: Homo sapiens
Procedure: MV-4-11 cells were cultured in IMDM medium supplemented with 10% fetal bovine serum and collected. The cell concentration was diluted according to a 7-day incubation period, and 180 µL of cell suspension was added to each well of a 96-well plate, resulting in 2,000 cells per well. […] The test compounds were prepared from a 10 mM stock solution and serially diluted in a five-fold gradient, and 20 µL of the diluted compound solution was added to each compound-treated well (final DMSO concentration 0.2%). The cells were incubated in a 37 °C, 5% CO2 incubator for 7 days. After incubation, the reaction solution was prepared according to the MTS assay kit instructions (Promega, G5430), and 20 µL was added to each well. The plate was further incubated at 37 °C with 5% CO2 for 3-4 hours. The absorbance at 490 nm was measured using a microplate reader, and the absorbance at 690 nm was used as the background value. The final raw data were calculated as OD490 - OD690. […] The IC50 values for cell proliferation inhibition were determined using GraphPad Prism 5.0. Each experiment was repeated three times, and three parallel replicates were performed in each experiment to calculate the mean value and standard deviation.
Table 3. Inhibitory Activity of Compounds on MV-4-11 Cell Proliferation

MM.1S cells = assay: MM.1S cell proliferation inhibition (MTS assay); conditions: Homo sapiens, MM1.S, 168 h, 7 days incubation, read-out: MM1.S (IC50, Inhibitory Activity of Compounds on MM.1S Cell Proliferation)
Procedure: The cell concentration was diluted according to a 7-day incubation period, and 180 µL of cell suspension was added to each well of a 96-well plate, with 20,000 cells per well. […] The test compounds were prepared from a 10 mM stock solution and serially diluted in a 5-fold gradient, and 20 µL of the diluted solution was added to each compound-treated well (final DMSO concentration also 0.2%). The cells were incubated in a 37 °C, 5% CO2 incubator for 7 days. After incubation, the reaction solution was prepared according to the MTS assay kit instructions (Promega, G5430), and 20 µL was added to each well. The plate was incubated at 37 °C with 5% CO2 for 3-4 hours. The absorbance at 490 nm was measured using a microplate reader, and the absorbance at 690 nm was used as the background value. […] The IC50 values for cell proliferation inhibition were determined using GraphPad Prism 5.0. Each experiment was repeated three times, and three parallel replicates were performed in each experiment to calculate the mean value and standard deviation.
Inhibitory Activity of Compounds on MM.1S Cell Proliferation

Mino cells = assay: Mino cell proliferation inhibition (MTS assay); conditions: Homo sapiens, 72 h, 3 days incubation, read-out: Mino (IC50, Inhibitory Activity of Compounds on Mino Cell Proliferation)
Procedure: The cell concentration was diluted according to a 3-day incubation period, and 90 µL of cell suspension was added to each well of a 96-well plate, resulting in 8,000 cells per well. […] The test compounds were prepared from a 10 mM stock solution and serially diluted in a five-fold gradient. Similarly, 10 µL of the diluted compound solution was added to each compound-treated well (final DMSO concentration 0.2%).
The cells were incubated in a 37 °C, 5% CO2 incubator for 3 days. After incubation, the reaction solution was prepared according to the MTS assay kit instructions (Promega, G5430), and 20 µL was added to each well. The plate was further incubated at 37 °C with 5% CO2 for 3-4 hours. The absorbance at 490 nm was measured using a microplate reader, and the absorbance at 690 nm was used as the background value. The final raw data were calculated as OD490 - OD690. […] The IC50 values for cell proliferation inhibition were determined using GraphPad Prism 5.0. Each experiment was repeated three times, and three parallel replicates were performed in each experiment to calculate the mean value and standard deviation.
Table 2. Inhibitory Activity of Compounds on Mino Cell Proliferation

[1] = MV4-11, reference compounds, read-out: cell growth inhibitory activity (IC50)
[2] = MV4-11, 168 h, 7 days incubation, MTS, read-out: MV-411 (IC50, Inhibitory Activity of Compounds on MV-4-11 Cell Proliferation)

| pIC50 (MV-4-11 cells; [1]) | pIC50 (MM.1S cells) | pIC50 (MV-4-11 cells; [2]) | Structure (SMILES) | pIC50 (Mino cells) |
| --- | --- | --- | --- | --- |
| < 4.70 | – | – | O=C1CC[C@H](N2Cc3c(OCc4ccc(CN5CCOCC5)cc4)cccc3C2=O)C(=O)N1 [CC-220, reference compound] | – |
| – | > 6.70 | 6.00 to 6.70 | N#Cc1ccc(N2CCC(Sc3ccc(COc4cccc5c(=O)n([C@H]6CCC(=O)NC6=O)[nH]c45)cn3)CC2)c(F)c1 [Compound D3, (S)-4-(4-((5-(((2-(2,6-dioxopiperidin-3-yl)-3-oxo-2,3-dihydro-1H-indazol-7-yl)oxy)methyl)pyridin-2-yl)thio)piperidin-1-yl)-3-fluorobenzonitrile] | > 6.70 |
| – | > 6.70 | > 6.70 | O=C1CCC(n2[nH]c3c(OCc4ccc(CN5CCN(c6ccc(C(F)(F)F)cc6)CC5)cc4)cccc3c2=O)C(=O)N1 (centres unmarked) [Compound D11, 3-(3-Oxo-7-((4-((4-(4-(trifluoromethyl)phenyl)piperazin-1-yl)methyl)benzyl)oxy)-1,3-dihydro-2H-indazol-2-yl)piperidine-2,6-dione] | 6.00 to 6.70 |
| – | > 6.70 | > 6.70 | O=C1CCC(n2[nH]c3c(OCc4ccc(CN5CCN(c6ccc(Cl)cc6Cl)CC5)cc4)cccc3c2=O)C(=O)N1 (centres unmarked) [Compound D12, 3-(7-((4-((4-(2,4-dichlorophenyl)piperazin-1-yl)methyl)benzyl)oxy)-3-oxo-1,3-dihydro-2H-indazol-2-yl)piperidine-2,6-dione] | 6.00 to 6.70 |
| – | > 6.70 | 6.00 to 6.70 | O=C1CCC(n2[nH]c3c(OCc4ccc(CN5CC(N6CCOCC6)C5)cc4)cccc3c2=O)C(=O)N1 (centres unmarked) [Compound D13, 3-(7-((4-((3-morpholinoazetidin-1-yl)methyl)benzyl)oxy)-3-oxo-1,3-dihydro-2H-indazol-2-yl)piperidine-2,6-dione] | 5.00 to 6.00 |
| – | > 6.70 | > 6.70 | O=C1CCC(n2[nH]c3c(OCc4ccc(CN5CCN(c6ccc(Cl)cc6Cl)CC5)cc4)cc(F)cc3c2=O)C(=O)N1 (centres unmarked) [Compound D16, 3-(7-((4-((4-(2,4-dichlorophenyl)piperazin-1-yl)methyl)benzyl)oxy)-5-fluoro-3-oxo-1,3-dihydro-2H-indazol-2-yl)piperidine-2,6-dione] | > 6.70 |
| – | > 6.70 | > 6.70 | O=C1CCC(n2[nH]c3c(OCc4ccc(CN5CCN(c6ccc(C(F)(F)F)cc6)CC5)cc4)cc(F)cc3c2=O)C(=O)N1 (centres unmarked) [Compound D17, 3-(5-Fluoro-3-oxo-7-((4-((4-(4-(trifluoromethyl)phenyl)piperazin-1-yl)methyl)benzyl)oxy)-1,3-dihydro-2H-indazol-2-yl)piperidine-2,6-dione] | > 6.70 |
| – | > 6.70 | 6.00 to 6.70 | O=C1CCC(n2[nH]c3c(OCc4ccc(CN5CC(N6CCOCC6)C5)cc4)cc(F)cc3c2=O)C(=O)N1 (centres unmarked) [Compound D20, 3-(5-Fluoro-7-((4-((3-morpholinoazetidin-1-yl)methyl)benzyl)oxy)-3-oxo-1,3-dihydro-2H-indazol-2-yl)piperidine-2,6-dione] | 6.00 to 6.70 |
| – | > 6.70 | > 6.70 | O=C1CCC(n2[nH]c3c(OCc4ccc(CN5CCN(c6ccc(Cl)cc6F)CC5)cc4)cc(F)cc3c2=O)C(=O)N1 (centres unmarked) [Compound D21, 3-(7-((4-((4-(4-chloro-2-fluorophenyl)piperazin-1-yl)methyl)benzyl)oxy)-5-fluoro-3-oxo-1,3-dihydro-2H-indazol-2-yl)piperidine-2,6-dione] | 6.00 to 6.70 |
| – | > 6.70 | < 4.70 | Cn1c2c(OCc3ccc(CN4CCOCC4)cc3)cccc2c(=O)n1C1CCC(=O)NC1=O (centres unmarked) [Compound D22, 3-(1-Methyl-7-((4-(morpholinomethyl)benzyl)oxy)-3-oxo-1,3-dihydro-2H-indazol-2-yl)piperidine-2,6-dione] | < 5.00 |
| – | 5.00 to 6.00 | < 4.70 | O=C1CC[C@H](n2[nH]c3c(OCc4cnc(-c5ccc(Cl)cc5)o4)cccc3c2=O)C(=O)N1 [Compound D27, (S)-3-(7-((2-(4-chlorophenyl)oxazol-5-yl)methoxy)-3-oxo-1,3-dihydro-2H-indazol-2-yl)piperidine-2,6-dione] | < 5.00 |
| – | 5.00 to 6.00 | < 4.70 | COc1ccc(-c2ncc(COc3cccc4c(=O)n(C5CCC(=O)NC5=O)[nH]c34)o2)cc1 (centres unmarked) [Compound D28, 3-(7-((2-(4-methoxyphenyl)oxazol-5-yl)methoxy)-3-oxo-1,3-dihydro-2H-indazol-2-yl)piperidine-2,6-dione] | < 5.00 |

Second part, the compound before the results:

| Structure (SMILES) | pIC50 (MV-4-11 cells; [1]) | pIC50 (MM.1S cells) | pIC50 (MV-4-11 cells; [2]) | pIC50 (Mino cells) |
| --- | --- | --- | --- | --- |
| Cn1c2c(OCc3ccc(CN4CCN(c5ccc(C#N)cc5F)CC4)cc3)cccc2c(=O)n1C1CCC(=O)NC1=O (centres unmarked) [Compound D24, 4-(4-(4-(((2-(2,6-dioxopiperidin-3-yl)-1-methyl-3-oxo-2,3-dihydro-1H-indazol-7-yl)oxy)methyl)benzyl)piperazin-1-yl)-3-fluorobenzonitrile] | – | > 6.70 | < 4.70 | > 6.70 |
| O=C1CC[C@H](n2[nH]c3c(OCc4cnc(-c5ccc(OC(F)(F)F)cc5)o4)cccc3c2=O)C(=O)N1 [Compound D26, (S)-3-(3-Oxo-7-((2-(4-(trifluoromethoxy)phenyl)oxazol-5-yl)methoxy)-1,3-dihydro-2H-indazol-2-yl)piperidine-2,6-dione] | – | 5.00 to 6.00 | 4.70 to 6.00 | 5.00 to 6.00 |
| O=C1CCC(n2[nH]c3cc(C(=O)NCc4ccc(Cl)cc4)ccc3c2=O)C(=O)N1 (centres unmarked) [Compound D29, N-(4-chlorobenzyl)-2-(2,6-dioxopiperidin-3-yl)-3-oxo-2,3-dihydro-1H-indazole-6-carboxamide] | – | < 5.00 | < 4.70 | < 5.00 |
| C[C@H](NC(=O)c1ccc2c(=O)n(C3CCC(=O)NC3=O)[nH]c2c1)c1ccc(Cl)cc1 (stereo partly drawn) [Compound D30, N-((S)-1-(4-chlorophenyl)ethyl)-2-(2,6-dioxopiperidin-3-yl)-3-oxo-2,3-dihydro-1H-indazole-6-carboxamide] | – | < 5.00 | 4.70 to 6.00 | 5.00 to 6.00 |
| Cc1ccc([C@H](C)NC(=O)c2ccc3c(=O)n(C4CCC(=O)NC4=O)[nH]c3c2)cc1 (some centres unmarked) [Compound D31] | – | < 5.00 | < 4.70 | < 5.00 |
| C[C@@H](NC(=O)c1ccc2c(=O)n(C3CCC(=O)NC3=O)[nH]c2c1)c1ccccc1 (stereo partly drawn) [Compound D32, 2-(2,6-dioxopiperidin-3-yl)-3-oxo-N-((R)-1-phenylethyl)-2,3-dihydro-1H-indazole-6-carboxamide] | – | < 5.00 | < 4.70 | < 5.00 |
| C[C@H](NC(=O)c1ccc2c(=O)n(C3CCC(=O)NC3=O)[nH]c2c1)c1ccccc1 (stereo partly drawn) [Compound D33, 2-(2,6-dioxopiperidin-3-yl)-3-oxo-N-((S)-1-phenylethyl)-2,3-dihydro-1H-indazole-6-carboxamide] | – | < 5.00 | < 4.70 | < 5.00 |
| C[C@@H](NC(=O)c1ccc2c(=O)n(C3CCC(=O)NC3=O)[nH]c2c1)c1ccc(Cl)cc1 (stereo partly drawn) [Compound D34, N-((R)-1-(4-chlorophenyl)ethyl)-2-(2,6-dioxopiperidin-3-yl)-3-oxo-2,3-dihydro-1H-indazole-6-carboxamide] | – | < 5.00 | < 4.70 | < 5.00 |
| O=C1CCC(n2[nH]c3cc(C(=O)N[C@@H](c4ccccc4)C(F)(F)F)ccc3c2=O)C(=O)N1 (stereo partly drawn) [Compound D35, 2-(2,6-dioxopiperidin-3-yl)-3-oxo-N-((S)-2,2,2-trifluoro-1-phenylethyl)-2,3-dihydro-1H-indazole-6-carboxamide] | – | < 5.00 | < 4.70 | < 5.00 |
| Nc1cccc2c1C(=O)N(C1CCC(=O)NC1=O)C2=O (centres unmarked) [pomalidomide, reference compound] | < 4.70 | – | – | – |
